Values after ≈ are worked out from the molar mass of the structure shown. Peptide text beside a SMILES is read from it.
The compounds below were run on 11 clinically relevant bacterial pathogens (assay: MIC over the panel of pathogens). Conditions: Table S17; lowest MIC over the strains tested.
Assay type: cell-based

| Compound | MIC (lowest MIC value obtained in the antimicrobial activity assays) [mM] |
| --- | --- |
| CC[C@H](C)[C@H](NC(=O)[C@H](CCCCN)NC(=O)[C@H](CCCCN)NC(=O)[C@H](Cc1ccccc1)NC(=O)[C@H](Cc1ccccc1)NC(=O)[C@@H](NC(=O)[C@@H](NC(=O)[C@H](CO)NC(=O)[C@H](CCCCN)NC(=O)[C@@H](NC(=O)[C@@H](NC(=O)[C@H](Cc1c[nH]c2ccccc12)NC(=O)[C@H](CCCCN)NC(=O)[C@H](CCCCN)NC(=O)[C@@H](NC(=O)[C@H](CCC(=O)O)NC(=O)[C@H](CCCCN)NC(=O)[C@H](CC(C)C)NC(=O)[C@@H](NC(=O)[C@H](CCCCN)NC(=O)[C@H](CCCNC(=N)N)NC(=O)[C@H](CC(C)C)NC(=O)[C@H](CC(C)C)NC(=O)[C@@H](N)CCCCN)C(C)C)[C@@H](C)O)C(C)C)[C@@H](C)CC)C(C)C)C(C)C)C(=O)N[C@@H](CCCNC(=N)N)C(=O)N[C@@H](CCCCN)C(=O)O [Hesperelin-1] (H-KLLRKVLKETKKWVIKSVVFFKKIRK-OH) | 2000 (≈ 6490 mg/mL) |
| CC[C@H](C)[C@H](N)C(=O)N[C@@H](Cc1ccccc1)C(=O)N[C@@H](CC(C)C)C(=O)N[C@@H](Cc1c[nH]cn1)C(=O)N[C@@H](CC(C)C)C(=O)N[C@@H](CCCCN)C(=O)N[C@H](C(=O)N[C@@H](CC(C)C)C(=O)N[C@@H](CCCCN)C(=O)N[C@H](C(=O)N[C@H](C(=O)N[C@@H](Cc1c[nH]cn1)C(=O)N[C@@H](CC(C)C)C(=O)N[C@@H](CC(C)C)C(=O)O)[C@@H](C)CC)[C@@H](C)CC)[C@@H](C)O [Mammuthusin-1] (H-IFLHLKTLKIIHLL-OH) | 4000 (≈ 6810 mg/mL) |
| CC[C@H](C)[C@H](NC(=O)[C@H](CCCCN)NC(=O)[C@H](CC(C)C)NC(=O)[C@@H](NC(=O)[C@@H](N)CCCCN)[C@@H](C)O)C(=O)N[C@H](C(=O)N[C@@H](CCCNC(=N)N)C(=O)N[C@@H](CC(C)C)C(=O)N[C@@H](CC(C)C)C(=O)N[C@@H](Cc1ccccc1)C(=O)O)[C@@H](C)CC [Mammuthusin-3] (H-KTLKIIRLLF-OH) | 16000 (≈ 19900 mg/mL) |
| CC[C@H](C)[C@H](NC(=O)[C@H](Cc1ccccc1)NC(=O)[C@@H](N)CC(C)C)C(=O)NCC(=O)N[C@@H](CC(C)C)C(=O)N[C@H](C(=O)N[C@@H](CC(N)=O)C(=O)N[C@@H](CC(C)C)C(=O)N[C@@H](CC(C)C)C(=O)NCC(=O)N[C@@H](CC(C)C)C(=O)N[C@@H](CC(C)C)C(=O)O)[C@@H](C)O [Mammuthusin-4] (H-LFIGLTNLLGLL-OH) | 2000 (≈ 2570 mg/mL) |
| CC[C@H](C)[C@H](NC(=O)[C@@H]1CCCN1C(=O)[C@H](CC(N)=O)NC(=O)[C@@H]1CCCN1C(=O)[C@@H]1CCCN1C(=O)[C@H](CCCCN)NC(=O)[C@@H](N)CCCCN)C(=O)N[C@@H](CCCCN)C(=O)N1CCC[C@H]1C(=O)N[C@@H](CCCCN)C(=O)N[C@H](C(=O)N1CCC[C@H]1C(=O)N[C@@H](CC(C)C)C(=O)N[C@@H](CO)C(=O)N[C@@H](C)C(=O)N1CCC[C@H]1C(=O)N[C@@H](CCCNC(=N)N)C(=O)N[C@@H](CCCCN)C(=O)N[C@@H](CO)C(=O)N1CCC[C@H]1C(=O)N[C@@H](CC(N)=O)C(=O)N[C@H](C(=O)N[C@H](C(=O)N[C@@H](CCCCN)C(=O)N[C@@H](Cc1ccc(O)cc1)C(=O)N[C@@H](CCCNC(=N)N)C(=O)N[C@@H](CC(C)C)C(=O)N[C@@H](CCCCN)C(=O)N[C@@H](Cc1ccccc1)C(=O)N[C@@H](CCCNC(=N)N)C(=O)O)C(C)C)[C@@H](C)O)C(C)C [Mammuthusin-5] (H-KKPPNPIKPKVPLSAPRKSPNTVKYRLKFR-OH) | 32000 (≈ 112000 mg/mL) |
| CC[C@H](C)[C@H](NC(=O)[C@@H](NC(=O)[C@H](CCSC)NC(=O)[C@@H](N)Cc1c[nH]c2ccccc12)[C@@H](C)O)C(=O)N[C@@H](Cc1c[nH]cn1)C(=O)N[C@@H](C)C(=O)N[C@@H](CC(C)C)C(=O)N[C@@H](CCCCN)C(=O)N[C@@H](CC(C)C)C(=O)N[C@@H](CO)C(=O)N[C@@H](CC(C)C)C(=O)N[C@@H](CO)C(=O)N[C@@H](Cc1ccccc1)C(=O)N[C@@H](CCCCN)C(=O)N[C@@H](CC(C)C)C(=O)O [Mammutin-1] (H-WMTIHALKLSLSFKL-OH) | 2000 (≈ 3580 mg/mL) |
| CC[C@H](C)[C@H](NC(=O)[C@@H](N)CC(C)C)C(=O)N[C@H](C(=O)N[C@@H](CS)C(=O)N[C@@H](Cc1ccccc1)C(=O)N[C@@H](Cc1ccccc1)C(=O)N[C@@H](CCCNC(=N)N)C(=O)N[C@@H](CCC(N)=O)C(=O)N[C@@H](CC(C)C)C(=O)N[C@@H](CCCCN)C(=O)N[C@@H](Cc1ccccc1)C(=O)N[C@@H](Cc1c[nH]cn1)C(=O)N[C@@H](Cc1ccccc1)C(=O)O)C(C)C [Megalocerin-1] (H-LIVCFFRQLKFHF-OH) | 8000 (≈ 13600 mg/mL) |
| CC[C@H](C)[C@H](NC(=O)[C@H](CCCCN)NC(=O)[C@H](CO)NC(=O)[C@H](CC(N)=O)NC(=O)[C@H](Cc1ccccc1)NC(=O)[C@H](Cc1c[nH]cn1)NC(=O)[C@H](Cc1ccccc1)NC(=O)[C@@H](N)Cc1c[nH]c2ccccc12)C(=O)N[C@@H](CC(C)C)C(=O)N[C@@H](CC(C)C)C(=O)N[C@@H](CC(C)C)C(=O)N[C@H](C(=O)NCC(=O)N[C@@H](CC(C)C)C(=O)O)[C@@H](C)O [Mylodonin-1] (H-WFHFNSKILLLTGL-OH) | 8000 (≈ 13500 mg/mL) |
| CC(C)C[C@H](NC(=O)CNC(=O)[C@H](CCCNC(=N)N)NC(=O)[C@H](CCCCN)NC(=O)[C@H](CCCNC(=N)N)NC(=O)[C@@H](N)CCCCN)C(=O)N[C@@H](CCCCN)C(=O)N[C@@H](CC(C)C)C(=O)N[C@@H](C)C(=O)N[C@H](C(=O)N[C@@H](C)C(=O)N[C@@H](CC(C)C)C(=O)N[C@@H](CO)C(=O)N[C@@H](CC(C)C)C(=O)N[C@@H](CC(N)=O)C(=O)N[C@@H](CC(N)=O)C(=O)N[C@@H](CCCCN)C(=O)N[C@@H](Cc1ccccc1)C(=O)O)[C@@H](C)O [Mylodonin-2] (H-KRKRGLKLATALSLNNKF-OH) | 32000 (≈ 65900 mg/mL) |
| CC[C@H](C)[C@H](NC(=O)[C@H](CC(N)=O)NC(=O)[C@H](CC(C)C)NC(=O)[C@@H](NC(=O)[C@H](Cc1ccccc1)NC(=O)[C@@H]1CCCN1C(=O)[C@@H]1CCCN1C(=O)[C@@H](NC(=O)[C@H](CO)NC(=O)[C@H](CC(C)C)NC(=O)[C@H](CCCCN)NC(=O)[C@H](CCCCN)NC(=O)[C@H](Cc1ccc(O)cc1)NC(=O)[C@@H](NC(=O)[C@@H](N)CCCCN)[C@@H](C)CC)[C@@H](C)O)[C@@H](C)O)C(=O)N[C@@H](CCCNC(=N)N)C(=O)N[C@H](C(=O)N[C@@H](CC(C)C)C(=O)N1CCC[C@H]1C(=O)N[C@@H](CCCCN)C(=O)N[C@H](C(=O)N[C@@H](CCCCN)C(=O)N[C@@H](Cc1ccccc1)C(=O)N1CCC[C@H]1C(=O)N[C@@H](CCCCN)C(=O)O)C(C)C)[C@@H](C)O [Mylodonin-3] (H-KIYKKLSTPPFTLNIRTLPKVKFPK-OH) | 16000 (≈ 47300 mg/mL) |
| CC[C@H](C)[C@H](NC(=O)[C@H](CCCCN)NC(=O)[C@H](CC(C)C)NC(=O)[C@H](CCC(N)=O)NC(=O)[C@H](Cc1ccccc1)NC(=O)[C@@H](NC(=O)[C@@H](NC(=O)[C@H](Cc1ccccc1)NC(=O)[C@H](CC(C)C)NC(=O)[C@@H](NC(=O)[C@@H](N)CC(C)C)[C@@H](C)O)[C@@H](C)CC)[C@@H](C)CC)C(=O)N[C@@H](CO)C(=O)N[C@@H](CCCCN)C(=O)N[C@@H](CC(C)C)C(=O)O [Paleopropin-1] (H-LTLFIIFQLKISKL-OH) | 32000 (≈ 53700 mg/mL) |
| CC[C@H](C)[C@H](N)C(=O)N[C@@H](CC(C)C)C(=O)N[C@H](C(=O)N[C@@H](CC(C)C)C(=O)N[C@@H](Cc1ccccc1)C(=O)N[C@H](C(=O)N[C@H](C(=O)N[C@@H](Cc1ccccc1)C(=O)N[C@@H](CCC(N)=O)C(=O)N[C@@H](CC(C)C)C(=O)N[C@@H](CCCCN)C(=O)N[C@H](C(=O)N[C@@H](CO)C(=O)N[C@@H](CCCCN)C(=O)N[C@@H](CC(C)C)C(=O)O)[C@@H](C)CC)[C@@H](C)CC)[C@@H](C)CC)[C@@H](C)O [Paleopropin-2] (H-ILTLFIIFQLKISKL-OH) | 16000 (≈ 28600 mg/mL) |
| CC[C@H](C)[C@H](NC(=O)[C@H](Cc1ccccc1)NC(=O)[C@@H](N)CCCCN)C(=O)N[C@@H](CC(C)C)C(=O)N[C@@H](CC(N)=O)C(=O)N[C@@H](Cc1ccccc1)C(=O)N[C@@H](CCCCN)C(=O)N[C@H](C(=O)N1CCC[C@H]1C(=O)N[C@H](C(=O)N[C@@H](CO)C(=O)N[C@@H](Cc1ccccc1)C(=O)N[C@@H](CCCCN)C(=O)O)[C@@H](C)CC)[C@@H](C)CC [Pinguinusin-1] (H-KFILNFKIPISFK-OH) | 4000 (≈ 6380 mg/mL) |
| CC[C@H](C)[C@H](NC(=O)[C@H](CCCCN)NC(=O)[C@@H](NC(=O)[C@H](Cc1c[nH]c2ccccc12)NC(=O)[C@H](CCCCN)NC(=O)[C@@H](N)CCCCN)[C@@H](C)O)C(=O)N[C@@H](Cc1ccc(O)cc1)C(=O)N[C@@H](CO)C(=O)N1CCC[C@H]1C(=O)N[C@@H](CC(C)C)C(=O)N[C@@H](CO)C(=O)N[C@@H](CC(C)C)C(=O)O [Smilodin-1] (H-KKWTKIYSPLSL-OH) | 64000 (≈ 93700 mg/mL) |
| CC[C@H](C)[C@H](NC(=O)[C@@H](N)[C@@H](C)O)C(=O)N[C@@H](CCCCN)C(=O)N[C@@H](CC(C)C)C(=O)N[C@@H](Cc1ccccc1)C(=O)N[C@@H](CC(C)C)C(=O)N[C@@H](CO)C(=O)N[C@@H](Cc1ccccc1)C(=O)N[C@@H](CCCCN)C(=O)N[C@@H](CC(C)C)C(=O)O [Xenothrixin-1] (H-TIKLFLSFKL-OH) | 8000 (≈ 9680 mg/mL) |

Each compound was assayed on A. baumannii ATCC 19606 (assay: Neutropenic thigh infection mouse model). Conditions: single intraperitoneal dose at MIC, n = 6.
Assay type: in vivo, CD-1 mice

| Compound | reduction of the bacterial load two days post-treatment |
| --- | --- |
| polymyxin B [reference compound] | 4-5 orders of magnitude |

The compounds below were run on A. baumannii ATCC 19606 (assay: MIC, broth microdilution). Conditions: broth microdilution in LB, 20 h at 37 °C, OD600; mean of three replicates.
Assay type: cell-based, Acinetobacter baumannii

| Compound | Minimal Inhibitory Concentration: A. baumannii ATCC19606 [µmol/L] |
| --- | --- |
| CC[C@H](C)[C@H](NC(=O)[C@H](CCCCN)NC(=O)[C@H](CCCCN)NC(=O)[C@H](Cc1ccccc1)NC(=O)[C@H](Cc1ccccc1)NC(=O)[C@@H](NC(=O)[C@@H](NC(=O)[C@H](CO)NC(=O)[C@H](CCCCN)NC(=O)[C@@H](NC(=O)[C@@H](NC(=O)[C@H](Cc1c[nH]c2ccccc12)NC(=O)[C@H](CCCCN)NC(=O)[C@H](CCCCN)NC(=O)[C@@H](NC(=O)[C@H](CCC(=O)O)NC(=O)[C@H](CCCCN)NC(=O)[C@H](CC(C)C)NC(=O)[C@@H](NC(=O)[C@H](CCCCN)NC(=O)[C@H](CCCNC(=N)N)NC(=O)[C@H](CC(C)C)NC(=O)[C@H](CC(C)C)NC(=O)[C@@H](N)CCCCN)C(C)C)[C@@H](C)O)C(C)C)[C@@H](C)CC)C(C)C)C(C)C)C(=O)N[C@@H](CCCNC(=N)N)C(=O)N[C@@H](CCCCN)C(=O)O [Hesperelin-1] (H-KLLRKVLKETKKWVIKSVVFFKKIRK-OH) | 8 |
| CC[C@H](C)[C@H](NC(=O)[C@@H](N)CC(C)C)C(=O)N[C@H](C(=O)N[C@@H](CS)C(=O)N[C@@H](Cc1ccccc1)C(=O)N[C@@H](Cc1ccccc1)C(=O)N[C@@H](CCCNC(=N)N)C(=O)N[C@@H](CCC(N)=O)C(=O)N[C@@H](CC(C)C)C(=O)N[C@@H](CCCCN)C(=O)N[C@@H](Cc1ccccc1)C(=O)N[C@@H](Cc1c[nH]cn1)C(=O)N[C@@H](Cc1ccccc1)C(=O)O)C(C)C [Megalocerin-1] (H-LIVCFFRQLKFHF-OH) | 8 |
| CC(C)C[C@H](NC(=O)CNC(=O)[C@H](CCCNC(=N)N)NC(=O)[C@H](CCCCN)NC(=O)[C@H](CCCNC(=N)N)NC(=O)[C@@H](N)CCCCN)C(=O)N[C@@H](CCCCN)C(=O)N[C@@H](CC(C)C)C(=O)N[C@@H](C)C(=O)N[C@H](C(=O)N[C@@H](C)C(=O)N[C@@H](CC(C)C)C(=O)N[C@@H](CO)C(=O)N[C@@H](CC(C)C)C(=O)N[C@@H](CC(N)=O)C(=O)N[C@@H](CC(N)=O)C(=O)N[C@@H](CCCCN)C(=O)N[C@@H](Cc1ccccc1)C(=O)O)[C@@H](C)O [Mylodonin-2] (H-KRKRGLKLATALSLNNKF-OH) | 64 |
